# PubChem BioAssay (NCI)
# Several values for one entry are separate records, joined by “and”; a condition that tells them apart may be missing. Identical values can stand only once.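 A five-concentration, 48-hour dose response in 96-well plates underlies each endpoint, interpolated linearly between surrounding concentrations. Here, GI50 denotes the concentration required for 50% inhibition of growth. TGI: concentration producing complete growth inhibition.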
# Columns and labels:
# Assay in all cases: NCI tumour cell line growth inhibition, 48 h
# T-47D breast = system: T-47D breast
# DU-145 prostate = system: DU-145 prostate
# UACC-257 melanoma = system: UACC-257 melanoma
# TK-10 renal = system: TK-10 renal
# MALME-3M melanoma = system: MALME-3M melanoma
# SK-OV-3 ovarian = system: SK-OV-3 ovarian
# NCI-H226 lung = system: NCI-H226 lung
# OVCAR-4 ovarian = system: OVCAR-4 ovarian
# 786-0 renal = system: 786-0 renal
# SF-295 CNS = system: SF-295 CNS
Structure (SMILES),GI50 (T-47D breast),TGI (T-47D breast),GI50 (DU-145 prostate) [µM],TGI (DU-145 prostate),GI50 (UACC-257 melanoma),TGI (UACC-257 melanoma),GI50 (TK-10 renal),TGI (TK-10 renal),GI50 (MALME-3M melanoma),TGI (MALME-3M melanoma),GI50 (SK-OV-3 ovarian),TGI (SK-OV-3 ovarian),GI50 (NCI-H226 lung) [µM],TGI (NCI-H226 lung),GI50 (OVCAR-4 ovarian) [µM],TGI (OVCAR-4 ovarian),GI50 (786-0 renal) [µM],TGI (786-0 renal),GI50 (SF-295 CNS),TGI (SF-295 CNS)
c1ccc2c(c1)ccc1c3ccccc3ccc21,> 50 µM,> 50 µM,> 50,> 50 µM,> 50 µM,> 50 µM,> 50 µM,> 50 µM,> 50 µM,> 50 µM,> 50 µM,> 50 µM,> 50,> 50 µM,> 50,> 50 µM,> 50,> 50 µM,–,–
C=C(C(=O)OC)[C@@H]1C[C@@H](O)[C@]2(C)CC/C=C(\C)CCC[C@H](C)[C@H](O)C1O2,52.8 µM,> 100 µM,45.5,> 100 µM,> 100 µM,> 100 µM,19.6 µM,48.8 µM,–,–,> 100 µM,> 100 µM,86.7,> 100 µM,78.8,> 100 µM,> 100,> 100 µM,83.8 µM,> 100 µM
COC(=O)[C@]12CC[C@@H](C)[C@H](C)[C@@H]1C1=CC[C@@H]3[C@@]4(C)C=C(O)C(=O)C(C)=C4CC[C@@]3(C)[C@]1(C)CC2,5.86 µM,30.8 µM,15.2,33.3 µM,20 µM,42.2 µM,18.2 µM,35.8 µM,22.4 µM,42.8 µM,15.6 µM,38.4 µM,12.3,41 µM,11.9,26.3 µM,16.4,32.6 µM,15.8 µM,37.9 µM
CN1CCN(c2cc(Nc3cc(C4CC4)[nH]n3)nc(Nc3ccc(CC(=O)NCc4cccc(F)c4)cc3)n2)CC1,2.27 µM,13.8 µM,2.03,11.5 µM,1.13 µM,2.94 µM,2.92 µM,16.1 µM,0.496 µM,4.55 µM,0.932 µM,12.9 µM,0.534,10.9 µM,1.55,22 µM,0.934,4.04 µM,1.99 µM,10.3 µM
COc1ccc(Cn2cc(Cn3c(=O)c(-c4nc5ccccc5[nH]4)cc4ccccc43)nn2)c(OC)c1OC,0.154 µM and 0.804 µM,–,0.22,0.769 µM,0.796 µM and 2.22 µM,–,0.572 µM and 1.02 µM,–,0.139 µM and 0.42 µM,0.985 µM and 2.8 µM,–,–,0.338,> 100 µM,1.31,> 100 µM,0.457,2.86 µM,0.239 µM and 0.324 µM,1.19 µM and 1.94 µM
C[C@@]12CCC[C@@](C)(C(=O)O)C1CC[C@@]13CC(=O)[C@@](CO)(CCC12)C3 (stereo partly specified),> 100 µM,> 100 µM,> 100,> 100 µM,> 100 µM,> 100 µM,> 100 µM,> 100 µM,> 100 µM,> 100 µM,> 100 µM,> 100 µM,> 100,> 100 µM,> 100,> 100 µM,> 100,> 100 µM,> 100 µM,> 100 µM
CC(C)(C)c1nnc2n(c1=O)N=CC(c1ccc(Br)cc1)S2 (stereo unspecified),23.8 µM,> 100 µM,29.3,> 100 µM,30.5 µM,69.4 µM,34.7 µM,> 100 µM,26.9 µM,79.7 µM,89.9 µM,> 100 µM,21.4,51 µM,33.9,> 100 µM,32.3,> 100 µM,12.1 µM,58.9 µM
CC1(C)CC[C@]2(C(=O)O)CC[C@]3(C)[C@H](CC[C@@H]4[C@@]5(C)CCC(=O)C(C)(C)[C@@H]5CC[C@]43C)[C@H]2[C@H]1OC(=O)C(F)(F)F,3.84 µM,23.9 µM,14.1,34 µM,10.1 µM,25.2 µM,16.9 µM,31.8 µM,12.9 µM,30.7 µM,13.4 µM,54 µM,13.5,34 µM,13.1,29.8 µM,14.3,29.5 µM,14.6 µM,30.1 µM
COc1cc2c3c(n(CCCNCCN4CCOCC4)c(=O)c2cc1OC)-c1cc2c(cc1C3=O)OCO2,2.56 µM and 23.5 µM,50 µM and 70.2 µM,0.678,3.8 µM,6.99 µM and 19.2 µM,14.2 µM and 46.2 µM,7.2 µM and 7.5 µM,14.8 µM and 23.5 µM,6.5 µM and 8.31 µM,14.5 µM and 27.3 µM,4.68 µM and 1.27 µM,–,15.1,53.8 µM,–,50 µM and 12.2 µM,1.97,5.23 µM,< 0.005 µM and 0.0343 µM,2.13 µM and 1.55 µM
O=[N+]([O-])c1ccc2c(c1)S(=O)c1ccccc1-2 (stereo unspecified),–,> 100 µM,–,> 100 µM,–,> 100 µM,–,> 100 µM,–,> 100 µM,–,> 100 µM,–,> 100 µM,–,> 100 µM,–,> 100 µM,–,> 100 µM
COP1(=S)OCC2CCC[C@@H]2O1 (stereo partly specified),–,> 100 µM,–,> 100 µM,–,> 100 µM,–,> 100 µM,–,> 100 µM,–,–,–,> 100 µM,–,> 100 µM,–,> 100 µM,–,> 100 µM
O=C1C=C(Nc2nc(C(=O)O)cc(=O)[nH]2)c2ccccc2C1=O,–,> 100 µM,–,> 100 µM,–,> 100 µM,–,> 100 µM,–,> 100 µM,–,> 100 µM,–,> 100 µM,–,> 100 µM,–,> 100 µM,–,> 100 µM
O=[N+]([O-])c1ccc(O)c2ncccc12,23 µM and 2.38 µM,–,–,> 100 µM and 15.2 µM,–,–,–,> 100 µM and 30.3 µM,3.55 µM,17.4 µM,–,> 100 µM and 15.7 µM,–,> 100 µM and 18.6 µM,–,–,–,> 100 µM and 11.6 µM,22 µM and 2.28 µM,82.4 µM and 13.1 µM
N#Cc1ccc2oc3ccc(C#N)cc3c(=O)c2c1,–,> 100 µM,–,> 100 µM,–,> 100 µM,–,73.4 µM,–,50.8 µM,–,–,–,77.5 µM,–,38.3 µM,–,68 µM,–,47.1 µM
CCc1nc(N)nc(N)c1-c1ccc(Cl)c(N=NN(C)C)c1,–,> 93 µM,–,> 100 µM,–,> 100 µM,–,> 100 µM,–,–,–,> 100 µM,–,> 100 µM,–,> 46.4 µM,–,> 95.7 µM,–,> 100 µM
